System: 521955-158-R2-J5-PDC complex spheroid growth
Test: Anticancer human tumor 521955-158-R2-J5-PDC patient-derived pancreatic carcinoma cell line growth inhibition [AhR]
Conditions: for IC50: curve of first compound; for viability, T/C: stronger effect = lower value
Description: Multicellular complex tumor spheroid response to aryl hydrocarbon receptor antagonists in combination with a variety of drugs and investigational agents in selected tumor cell lines
The current study was undertaken to assess response to aryl hydrocarbon receptor antagonists in combination with standard-of-care drugs and investigational agents in solid tumor complex spheroid models. Complex spheroids include a stromal component modeled by human endothelial cells (HUVEC) and fibroblasts modeled by human mesenchymal stem cells (MSCs). The concentration ranges selected for each drug and investigational agent were based upon clinically achievable concentrations if the clinical Cmax of the agent was known.
Compounds. The drugs and investigational agents: BAY 2416964 (NSC825713), GNF351 (NSC835774), CH-223191 (NSC835775), CPI-455 (NSC825282), aza-TdCyd (NSC777586), decitabine (NSC127716), belinostat (NSC758774), entinostat (NSC756642), pevonedistat (NSC761192), tazemetostat (NSC777109), talazoparib (NSC765396), olaparib (NSC753686), selinexor (NSC780203), nedisertib (M3814, NSC802822), bortezomib (NSC756655), venetoclax (NSC766270), doxorubicin (NSC123127), elimusertib (BAY189344, NSC800525), ceralasertib (AZD6738, NSC777638), TAK-243 (NSC785004), alisertib (NSC759677), etoposide (NSC141540), topotecan (NSC609699), eribulin (NSC707389), gemcitabine (NSC613327), carboplatin (NSC241240), cisplatin (NSC119875), and SN-38 (NSC673596) were obtained from the National Cancer Institute (NCI) Developmental Therapeutics Program Chemical Repository (32). The FDA-approved anticancer drug set is available from the Developmental Therapeutics Program at https://dtp.cancer.gov/organization/dscb/obtaining/available plates.htm. […] The stock solutions were prepared in dimethyl sulfoxide (DMSO, Sigma-Aldrich, St. Louis, MO, cat. D2650), except for the platinum compounds which were prepared in saline (Quality Biological, Gaithersburg, MD, cat. 114-055-101), at 800-fold the tested concentration and stored at -70 degrees C prior to their use. All drugs and investigational agents were tested over a range starting from a high concentration at or near the clinical Cmax and decreasing in half-log increments. If the clinical Cmax for an agent had not been determined, the highest concentration tested was 10 microM (Table 1).
Cell Culture. All cells were maintained in an incubator at 37 degrees C and 5% CO2 with 95% humidity. The PDC lines were cultured according to standard operating procedures established by the NCI PDMR (https://pdmr.cancer.gov). Briefly, all PDCs were thawed and cultured in Matrigel-coated flasks prepared with a working solution of 1X Ham's F-12 nutrient mix, without supplementation (Invitrogen, Waltham, MA, cat. 11765054), 100 U/mL penicillin-streptomycin (Invitrogen, cat. 15140122), and 2.5% Matrigel (Corning Inc., Corning, NY, cat. 354248) for the first three passages. All PDCs were cultured in complete DMEM/F-12 media containing advanced DMEM/F-12 (Invitrogen, cat. 12634028), 4.9% defined fetal bovine serum, heat inactivated (HyClone Laboratories Inc., Logan, UT, cat. SH30070.03HI), 389 ng/mL hydrocortisone (Sigma-Aldrich, cat. H4001), 9.7 ng/mL human EGF recombinant protein (Invitrogen, cat. PHG0313), 23.4 microg/mL adenine (Sigma-Aldrich, cat. A2786), 97.3 U/mL penicillin-streptomycin (Invitrogen, cat. 15140122), 1.9 mM L-glutamine (Invitrogen, cat. 25030081), and 9.7 microM Y-27632 dihydrochloride (Tocris Bioscience, Bristol, United Kingdom, cat. 1254). The PDCs were cultured in complete DMEM/F12 media without 10 microM Y-27632 dihydrochloride for at least two passages prior to the screen. The established cell lines NCI-H1341 and […] were cultured in DMEM/F-12, HEPES (Invitrogen, cat. 11330032), 5% defined fetal bovine serum (HyClone Laboratories Inc., cat. SH30070.03), ITS premix universal culture supplement [insulin (5 microg/mL), transferrin (5 microg/mL), and selenious acid (5 ng/mL)] […]

[1] = second compound 0.1 µM, first compound 0.0316 µM
[2] = second compound 0.1 µM, first compound 0.1 µM
[3] = second compound 0.1 µM, first compound 0.316 µM
[4] = second compound 0.1 µM, first compound 1 µM
[5] = second compound 0.316 µM, first compound 0.0316 µM
[6] = second compound 0.316 µM, first compound 0.1 µM
[7] = second compound 0.316 µM, first compound 0.316 µM
[8] = second compound 0.316 µM, first compound 1 µM
[9] = second compound 1 µM, first compound 0.0316 µM
[10] = second compound 1 µM, first compound 0.1 µM
[11] = second compound 1 µM, first compound 0.316 µM
[12] = second compound 1 µM, first compound 1 µM
[13] = second compound 3.16 µM, first compound 0.0316 µM
[14] = second compound 3.16 µM, first compound 0.1 µM
[15] = second compound 3.16 µM, first compound 0.316 µM
[16] = second compound 3.16 µM, first compound 1 µM
[17] = second compound 10 µM, first compound 0.0316 µM
[18] = second compound 10 µM, first compound 0.1 µM
[19] = second compound 10 µM, first compound 0.316 µM
[20] = second compound 10 µM, first compound 1 µM
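Wherever viability, T/C is given: spheroids mix tumor cells with HUVEC endothelium and human MSC stroma; luminescence taken as viability surrogate after a week of drug exposure.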

Row | Structure (SMILES) | IC50 (second compound 0.1 µM) | IC50 (second compound 0.316 µM) | IC50 (second compound 1 µM) | IC50 (second compound 3.16 µM) | IC50 (second compound 10 µM) | viability, T/C [1] | viability, T/C [2] | viability, T/C [3] | viability, T/C [4] | viability, T/C [5] | viability, T/C [6] | viability, T/C [7] | viability, T/C [8] | viability, T/C [9] | viability, T/C [10] | viability, T/C [11] | viability, T/C [12] | viability, T/C [13] | viability, T/C [14] | viability, T/C [15] | further results
1 | CC1COCCN1c1cc(-c2ccnn2C)c2ccnc(-c3ccn[nH]3)c2n1 (stereo not given) + CC(CO)NC(=O)c1cc(-c2ccc(Cl)cc2)nn(-c2cnn(C)c2)c1=O | 88.1 nM | 106 nM | 81.3 nM | 67.7 nM | 37.8 nM | 98.3% | 44.3% | 11.2% | 14.6% | 110% | 54.5% | 8.67% | 13.1% | 120% | 37% | 8.65% | 13.6% | 94.4% | 27.6% | 8.07% | viability, T/C (second compound 0.1 µM, first compound 0.00316 µM): 91.6%; viability, T/C (second compound 0.1 µM, first compound 0.01 µM): 121%; viability, T/C (second compound 0.316 µM, first compound 0.00316 µM): 141%; viability, T/C (second compound 0.316 µM, first compound 0.01 µM): 126%; viability, T/C (second compound 1 µM, first compound 0.00316 µM): 93%; viability, T/C (second compound 1 µM, first compound 0.01 µM): 115%; viability, T/C (second compound 3.16 µM, first compound 0.00316 µM): 115%; viability, T/C (second compound 3.16 µM, first compound 0.01 µM): 102%; viability, T/C [16]: 12.1%; viability, T/C (second compound 10 µM, first compound 0.00316 µM): 93.5%; viability, T/C (second compound 10 µM, first compound 0.01 µM): 89.5%; viability, T/C [17]: 55.8%; viability, T/C [18]: 17.8%; viability, T/C [19]: 7.29%; viability, T/C [20]: 12.2%
2 | NS(=O)(=O)OCC1CC(n2ccc3c(NC4CCc5ccccc54)ncnc32)CC1O (stereo not given) + Cc1cncc(-c2nc(NCCc3c[nH]c4ccccc34)c3ncn(C(C)C)c3n2)c1 | 968 nM | 1170 nM | 1250 nM | 1240 nM | 68.3 nM | 106% | 103% | 80.1% | 47.9% | 105% | 102% | 78.5% | 53.4% | 115% | 105% | 83.7% | 52.1% | 99.4% | 102% | 75.2% | viability, T/C (second compound 0.1 µM, first compound 3.16 µM): 40.1%; viability, T/C (second compound 0.1 µM, first compound 10 µM): 30.1%; viability, T/C (second compound 0.316 µM, first compound 3.16 µM): 35.6%; viability, T/C (second compound 0.316 µM, first compound 10 µM): 30.4%; viability, T/C (second compound 1 µM, first compound 3.16 µM): 38%; viability, T/C (second compound 1 µM, first compound 10 µM): 32.1%; viability, T/C [16]: 52.6%; viability, T/C (second compound 3.16 µM, first compound 3.16 µM): 45%; viability, T/C (second compound 3.16 µM, first compound 10 µM): 35.2%; viability, T/C [17]: 65.5%; viability, T/C [18]: 40.6%; viability, T/C [19]: 34.4%; viability, T/C [20]: 32.7%; viability, T/C (second compound 10 µM, first compound 3.16 µM): 28.7%; viability, T/C (second compound 10 µM, first compound 10 µM): 23.9%

From PubChem BioAssay AID1918998 (Molecular Pharmacology Branch, DTP, NCI, 2023)
